# From patent EP3221371B1, “MONOLITHS” (Monolythix, Inc., priority 2014, dated 2016)
# System: fluorescently-labeled cell wall material
# Assay: EnzChek Lysozyme Assay of covalently grafted lysozyme
# Assay type: biochemical
# Settings: one hour at 37 °C, compared with lysozyme standard dilution series (Figure 5)
# Description: After covalently grafting lysozyme to a small block of carboxy monolith polymeric matrix, the sample was placed into a solution of fluorescently-labeled cell wall material (EnzChek® Lysozyme Assay Kit) and incubated for one hour at 37 °C in a plate reader, along with a lysozyme standard dilution series.
# A fresh solution of 160 mg/mL EDAC stock in dry DMSO was prepared. A lysozyme mix was prepared from 20 µL of a 10 mg/mL solution of lysozyme in 1x PBS, 28 µL of a 200 mM MES solution at pH 7.0, and 15 µL water.
# 7 µL 160 mg/mL EDAC was spotted onto a single 20 mg disc formed from monolith material, (1:2:1 TEGDMA:EGDMA:HEMA plus 2.0% MAA). The prepared lysozyme mix (63 µL) was then added and the sample incubated at room temperature for 1 h. A glycine solution (10 µl; 30 mg/mL solution in 100 mM MES solution at pH 7.0) was then added and the sample incubated for 15 min at room temperature. The disc was then rinsed in water and stored at 4 °C until use.
# To test the activity of the immobilized enzyme, a lysozyme-coupled disc and an untreated control disc were each cut into equal 1/8 size pie-shaped segments. Two pieces of each were then added to two wells of a microwell plate and lysozyme substrate was added. […] Fluorescence was read at regular intervals to determine the extent of carbohydrate breakdown and consequent lysozyme activity.
substance,measurement,value
lysozyme chip: Lysozyme covalently grafted with EDAC to carboxy monolith disc (1:2:1 TEGDMA:EGDMA:HEMA plus 2.0% MAA),final fluorescence signal intensity,greater than the highest standard
